Measurements from patent US11047847B2, “Methods and apparatus for modeling cancer metastasis in vitro” (Wake Forest University Health Sciences, priority 2015, dated 2021).
“Also recorded” adds a separate entry of the source.

Experiments:
Caco2 organoids (WT) = experiment: MTS assay of mitochondrial metabolism in CRC organoids in microfluidic devices; assay type: cell-based; details: 48-hour treatment
From the text: (§1) Precision medicine—identifying treatments for patients based on their tumor genetic profiles—has gained significant traction. […] In a non-limiting example, colorectal cancer (CRC) organoids were created by encapsulating CRC cells (Caco2 and SW480—WT; HCT116—KRASMT; and HT29—BRAFMT) in hyaluronic acid and gelatin hydrogels in microfluidic devices. Each type of CRC organoid was then subjected to a panel of clinical CRC drugs: 5-FU or oxaliplatin (1st line drugs effective in WT tumors), Tramatinib (an EGFR pathway drug effective in KRASMT tumors), and sorafenib or regorafenib (EGFR pathway drugs effective in BRAFMT tumors). Following 48-hour treatments, organoids were assessed for mitochondrial metabolism by MTS assays. There appeared to be clear differences in drug responsiveness that correlated with EGFR genetic states.

SW480 organoids (WT) = experiment: as above; assay type: cell-based; details: 48-hour treatment
From the text: as §1

[1] = system: HCT116 organoids (KRASMT); experiment: as above; assay type: cell-based, human; details: 48-hour treatment
From the text: as §1

HCT-116 cells = experiment: Drug treatment and assessment of migration, multi-zone tumor organoid migration model (soft tumor, stiff tissue); assay type: cell-based, human; details: 50 μM Marimastat in DMEM vs no drug control
Protocol: To assess the influence of the physical tumor microenvironment parameters on tumor cell migration, a variation of the organoids described above were […]. Instead of encapsulating homogenously mixed cells throughout the hydrogel, 3-D organoid volumes were formed first, after which a volume of 5 μL HCT-116 cells in hydrogel precursor solution was pipetted into the center of the organoid space and polymerized in place by a 1 second exposure to UV light. […] Organoid and tumor zone elastic moduli were modulated by swapping of the linear PEGDA crosslinker molecule (3.4 kDa MW) with a 4-arm PEG-acrylate molecule (10 kDa MW, Creative PEGWorks, Winston-Salem, N.C.) or 8-arm PEG-acrylate crosslinker molecule (10 kDa MW, Creative PEGWorks) to generate stiffer hydrogels. […] Fluorescent and brightfield overlay images were captured on day 3, day 7, and day 10, from which distances of migration of cells out of the tumor were determined over time using ImageJ software. […]

HT29 organoids (BRAFMT) = experiment: MTS assay of mitochondrial metabolism in CRC organoids in microfluidic devices; assay type: cell-based; details: 48-hour treatment
From the text: as §1

## O=c1[nH]cc(F)c(=O)[nH]1 [5-FU]
Caco2 organoids (WT)
  drug sensitivity (mitochondrial metabolism by MTS): particularly sensitive
SW480 organoids (WT)
  drug sensitivity (mitochondrial metabolism by MTS): particularly sensitive
[1]
  drug sensitivity (mitochondrial metabolism by MTS): particularly sensitive

## CNC(=O)C(NC(=O)C(CC(C)C)C(O)C(=O)NO)C(C)(C)C (stereo not shown) [Marimastat, N-[2,2-dimethyl-1-(methylcarbamoyl)propyl]-2-[hydroxy-(hydroxycarbamoyl)methyl]-4-methyl-pentanamide]
HCT-116 cells; day 3, day 7 and day 10, length in pixel counts, p<0.05
  migration distance of HCT-116 cells out of the tumor: significantly prevented migration
HCT-116 cells; overlay images, day 10
  tumor cell invasion / outward growth of HCT-116 aggregates into the surrounding 3-D environment: reduce tumor cell invasion; also recorded: prevents outward growth of aggregates

## CNC(=O)c1cc(Oc2ccc(NC(=O)Nc3ccc(Cl)c(C(F)(F)F)c3)c(F)c2)ccn1 [regorafenib]
HT29 organoids (BRAFMT)
  drug sensitivity (mitochondrial metabolism by MTS): slight sensitivity

## CNC(=O)c1cc(Oc2ccc(NC(=O)Nc3ccc(Cl)c(C(F)(F)F)c3)cc2)ccn1 [sorafenib]
[1]
  drug sensitivity (mitochondrial metabolism by MTS): particularly sensitive
